Data published in PubChem BioAssay (NCI).
“And” between values parts separate entries of the source, which are not always exact repeats. Equal entries are not always repeated.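 96-well plates; 48 h exposure; 5 concentrations. Endpoints by linear interpolation between flanking doses. Not reached: highest tested concentration assigned. GI50: concentration for 50% inhibition of growth. TGI is the concentration that stops growth completely.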

What was measured:
Assay in all cases: growth of human tumour cells (NCI), 48 h
[1] = test system: DMS 273 small cell lung
[2] = test system: HCC-2998 colon
[3] = test system: HOP-18 NSCLC
[4] = test system: M14 melanoma
[5] = test system: RPMI-8226 leukemia
[6] = test system: SF-268 CNS
[7] = test system: SK-MEL-5 melanoma
[8] = test system: SNB-75 CNS
[9] = test system: SR leukemia
[10] = test system: ACHN renal

Row | Structure (SMILES) | TGI [1] [µM] | TGI [2] [µM] | TGI [3] [µM] | TGI [4] [µM] | TGI [5] [µM] | TGI [6] [µM] | TGI [7] [µM] | TGI [8] [µM] | TGI [9] [µM] | TGI [10] [µM] | GI50 [10] [µM] | GI50 [1] | GI50 [2] [µM] | GI50 [3] [µM] | GI50 [4] | GI50 [5] | GI50 [6] | GI50 [7] | GI50 [8] | GI50 [9]
1 | CCCCCCCC(=O)NCC(O)CNC(=O)CCCCCCC | > 100 | > 100 | > 100 | > 100 | > 100 | > 100 | > 100 | > 100 | > 100 |  |  |  |  |  |  |  |  |  |  | 
2 | Cc1ccccc1C1=[N+]([O-])c2ccccc2C1=O |  |  | 54.4 | 32.4 | > 100 | 36.8 | 30.9 | 47 | > 100 | 30.6 |  |  |  |  |  |  |  |  |  | 
3 | CCOC(=O)c1c(-c2ccccc2)oc(-c2ccccc2)c1C(=O)OCC | > 100 | > 100 | > 100 | > 100 | > 100 | > 100 | > 100 | > 100 | > 100 | > 100 |  |  |  |  |  |  |  |  |  | 
4 | CC(=O)Oc1cc(C)c2c(c1OC(C)=O)CC1(O2)[C@@H](C)CCC2[C@@]3(C)CC[C@H](OC(C)=O)C(C)(C)C3CC[C@]21C (stereo partly specified) | 4.46 | 19.2 | 6.81 | 18.7 | > 100 | 12.8 | 10.7 | 14.9 | 11.3 | 7.63 |  |  |  |  |  |  |  |  |  | 
5 | O=C(O)C1=CCCc2ccc3ccccc3c21 | > 100 |  | > 100 | > 100 | > 100 | > 100 |  | > 100 |  | > 100 |  |  |  |  |  |  |  |  |  | 
6 | CSc1cccc(-n2c3nc(=O)n(C)c(=O)c-3nc3ccccc32)c1 | 13.2 | 16.5 | 26.2 | 9.79 | 26.2 | 61.9 | 3.02 | 28.6 |  | 13.2 |  |  |  |  |  |  |  |  |  | 
7 | CC(=O)N1c2ccccc2C2=CC3C4C(=O)N(c5ccccc5)C(=O)C4C21C1C(=O)N(c2ccccc2)C(=O)C31 (stereo unspecified) |  | > 100 | > 100 |  |  | > 100 |  | > 100 | > 100 | > 100 |  |  |  |  |  |  |  |  |  | 
8 | CCN(CC)CCCn1cnc2ncccc2c1=O | > 100 |  |  | > 100 |  | > 100 | > 100 | > 100 | > 100 | > 100 |  |  |  |  |  |  |  |  |  | 
9 | Cc1oc2c(C)c3oc(=O)cc(C)c3cc2c1CNC(=O)[C@@H]1OCCOCCOCCOCCOCCOC1C(=O)O (stereo partly specified) | > 100 | > 100 | > 100 | 27.5 | > 100 | > 100 | > 100 | > 100 | > 100 | > 100 |  |  |  |  |  |  |  |  |  | 
10 | CC1(Cl)CC2OC3(Br)C=CC(C)(O)C2(CC1Br)C3(C)C (stereo unspecified) | > 100 | > 100 | > 100 | > 100 | > 100 | > 100 | > 100 | > 100 | > 100 | > 100 |  |  |  |  |  |  |  |  |  | 
11 | C/C(=N\NC(N)=S)c1cc(C)c(C)cc1C | > 100 | > 100 | > 100 | > 100 | > 100 | > 100 | > 100 | 85.3 | > 100 | > 100 |  |  |  |  |  |  |  |  |  | 
12 | O=C(C=Nc1ccccc1C(=O)[O-])c1cccs1.O=C(C=Nc1ccccc1C(=O)[O-])c1cccs1.[Co+2] |  | > 100 | > 100 | > 100 |  | > 100 |  |  | > 100 | > 100 |  |  |  |  |  |  |  |  |  | 
13 | CCC[CH2][Sn]([CH2]CCC)([O]C(=O)c1cc(F)ccc1F)[O][Sn]([CH2]CCC)([CH2]CCC)[O]C(=O)c1cc(F)ccc1F | 1.56 | 1.92 | 1.67 | 1.25 | > 100 | 0.798 | 1.83 | 1.66 | > 22.3 | 0.738 | 0.251 | 0.331 µM | 0.669 | 0.654 | 0.367 µM | 0.0916 µM | 0.216 µM | 0.626 µM | 0.365 µM | 0.14 µM
14 | CC(=O)O[C@@]12CO[C@@H]1C[C@H](O)[C@@]1(C)C(=O)[C@H](O)C3=C(C)[C@@H](OC(=O)[C@H](O)[C@@H](NC(=O)OC(C)(C)C)c4ccccc4)C[C@@](O)([C@@H](OC(=O)c4ccccc4)[C@H]21)C3(C)C | 17.4 |  | 74.5 | 0.281 | 15.6 | 77.6 | 17.1 | 0.0637 | 23.5 | 67.1 | 0.156 | 0.0112 µM and 0.0271 µM | 0.0182 |  | 0.0154 µM and 0.0205 µM | 0.0057 µM and 0.00374 µM | 0.0677 µM and 0.0392 µM | 0.0133 µM and 0.00609 µM | 0.0187 µM and 0.0127 µM | 0.0154 µM and 0.00407 µM
15 | C/C=C/C1=C(Cl)C(=O)[C@@H](Cl)[C@@]1(O)C(=O)OC | 9.61 | 8.84 | 11 | 11.9 | 29 | 24.2 | 16.5 | 32.8 | 21.7 | 6.59 |  |  |  |  |  |  |  |  |  | 
16 | CC[O-].CC[O-].O=C([CH-]C(=O)c1cccnc1)c1ccccc1.O=C([CH-]C(=O)c1cccnc1)c1ccccc1.[Ti+4] | > 100 | > 100 |  | > 100 | > 100 | > 100 | > 100 | 69 | > 100 | > 100 | 53.4 | 68.6 µM | > 100 |  | 60.4 µM | 55.8 µM | 88.3 µM | > 100 µM | 19.9 µM | 25.5 µM
17 | [Cl][Sn]([Cl])([c]1ccccc1)[c]1ccccc1 |  | 28.5 | 31.8 | 29 | 18 | 30.4 | 26.9 | 22.9 | 25.7 | 27.5 | 14.4 |  | 15 | 17.9 | 15.3 µM | 2.71 µM | 13.2 µM | 12.2 µM | 10.8 µM | 3.93 µM
18 | Nc1nc2sc3ccccc3c(=O)n2n1 | > 100 | > 100 | > 100 | > 100 | > 100 | > 100 | > 100 | > 100 | > 100 | > 100 |  |  |  |  |  |  |  |  |  | 
